Toxic doses and inconclusive results are not listed. Rule as the data show it: active = T/C of 150% or more; inactive = T/C below 125%.
Test system: L1210 leukemia ip in BDF1 mice, survival T/C
Assay: NCI In Vivo Anticancer Drug Screen. Data for tumor model L1210 Leukemia (intraperitoneal) in B6D2F1 (BDF1) mice
Settings: endpoint: mean survival time, higher = longer survival
In short: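 Each compound was tested against a transplantable tumor grown in mice. The endpoint was survival, with treated animals benchmarked against vehicle controls as a simple ratio.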

[1] = dose: 100.0 mg/kg/injection, schedule: Q04DX003 (ip), vehicle: saline
[2] = dose: 200.0 mg/kg/injection, schedule: Q04DX003 (ip), vehicle: saline
[3] = dose: 400.0 mg/kg/injection, schedule: Q04DX003 (ip), vehicle: saline
[4] = dose: 100.0 mg/kg/injection, schedule: Q04DX003 (ip), vehicle: saline with Tween-80
[5] = dose: 200.0 mg/kg/injection, schedule: Q04DX003 (ip), vehicle: saline with Tween-80
[6] = dose: 400.0 mg/kg/injection, schedule: Q04DX003 (ip), vehicle: saline with Tween-80
[7] = dose: 100.0 mg/kg/injection, schedule: Q01DX001 (ip), vehicle: saline
[8] = dose: 200.0 mg/kg/injection, schedule: Q01DX001 (ip), vehicle: saline
[9] = dose: 400.0 mg/kg/injection, schedule: Q01DX001 (ip), vehicle: saline
[10] = dose: 50.0 mg/kg/injection, schedule: Q01DX001 (ip), vehicle: saline

Measured: T/C

c1ccc(C2=C(c3ccccc3)c3cccc4cccc2c34)cc1
inactive: dose: 100.0 mg/kg/injection, schedule: Q01DX001 (ip), vehicle: acetone 100 % of control | dose: 100.0 mg/kg/injection, schedule: Q01DX009 (ip), vehicle: acetone 87 % of control | [1] 94 % of control | dose: 200.0 mg/kg/injection, schedule: Q01DX001 (ip), vehicle: acetone 89 % of control | dose: 200.0 mg/kg/injection, schedule: Q01DX009 (ip), vehicle: acetone 96 % of control | [2] 97 % of control | dose: 400.0 mg/kg/injection, schedule: Q01DX001 (ip), vehicle: acetone 94 % of control | dose: 400.0 mg/kg/injection, schedule: Q01DX009 (ip), vehicle: acetone 87 % of control | [3] 92 % of control

CSc1ccnc2c1cnn2C1OC(CO)C(O)C1O (centres undefined)
inactive: dose: 50.0 mg/kg/injection, schedule: Q01DX005 (ip), vehicle: other 109 % of control | dose: 100.0 mg/kg/injection, schedule: Q01DX005 (ip), vehicle: other 102 % of control | dose: 200.0 mg/kg/injection, schedule: Q01DX005 (ip), vehicle: other 98 % of control

C=CCOc1cccc(OCC=C)c1C
inactive: [4] 100 % of control | [5] 98 % of control | [6] 98 % of control

C1=CC2CC1C1CC21 (centres undefined)
inactive: dose: 75.0 mg/kg/injection, schedule: Q01DX001 (ip), vehicle: saline 100 % of control | dose: 150.0 mg/kg/injection, schedule: Q01DX001 (ip), vehicle: saline 96 % of control | dose: 300.0 mg/kg/injection, schedule: Q01DX001 (ip), vehicle: saline 96 % of control

CCCCCCCCCCOC(=O)C[n+]1cccc(C(=O)Nc2ccc(Cl)cc2)c1
inactive: dose: 12.5 mg/kg/injection, schedule: Q04DX003 (ip), vehicle: saline 97 % of control | dose: 25.0 mg/kg/injection, schedule: Q04DX003 (ip), vehicle: saline 105 % of control | dose: 50.0 mg/kg/injection, schedule: Q04DX003 (ip), vehicle: saline 90 % of control

N#CCCSCCC#N
inactive: dose: 7.5 mg/kg/injection, schedule: Q01DX009 (ip), vehicle: saline 101 % of control | [4] 105 % of control | [1] 115 % of control | dose: 150.0 mg/kg/injection, schedule: Q01DX009 (ip), vehicle: saline 93 % of control | [5] 100 % of control | [2] 101 % of control | dose: 300.0 mg/kg/injection, schedule: Q01DX009 (ip), vehicle: saline 98 % of control | [6] 108 % of control | [3] 100 % of control

O=C(CCCN1CCC(O)(c2ccc(C(F)(F)F)cc2)CC1)c1ccc(N2CCC(O)CC2)cc1
inactive: dose: 100.0 mg/kg/injection, schedule: Q04DX002 (ip), vehicle: saline with Tween-80 93 % of control | dose: 200.0 mg/kg/injection, schedule: Q04DX002 (ip), vehicle: saline with Tween-80 100 % of control

COc1ccc(/C(C#N)=C2C=C(Cl)/C(=N/O)C=C/2Cl)cc1
inactive: [7] 91 % of control | dose: 100.0 mg/kg/injection, schedule: Q01DX009 (ip), vehicle: saline with Tween-80 93 % of control | [1] 91 % of control | [8] 95 % of control | dose: 200.0 mg/kg/injection, schedule: Q01DX009 (ip), vehicle: saline with Tween-80 98 % of control | [2] 87 % of control | [9] 96 % of control | [3] 86 % of control

CC/C(=N/NC(N)=O)c1ccccc1Cl
inactive: [7] 97 % of control | [8] 96 % of control | [9] 106 % of control

CCCCCCCCCC(=O)NN=C(C)C
inactive: dose: 12.5 mg/kg/injection, schedule: Q01DX009 (ip), vehicle: Klucel (hydroxypropylcellulose) (HPC) 92 % of control | dose: 25.0 mg/kg/injection, schedule: Q01DX009 (ip), vehicle: Klucel (hydroxypropylcellulose) (HPC) 105 % of control | dose: 50.0 mg/kg/injection, schedule: Q01DX009 (ip), vehicle: Klucel (hydroxypropylcellulose) (HPC) 116 % of control

Cc1ncc(Br)c(C(=O)O)n1
inactive: [10] 101 % of control | [7] 98 % of control | dose: 100.0 mg/kg/injection, schedule: Q01DX009 (ip), vehicle: Klucel (hydroxypropylcellulose) (HPC) 106 % of control | [8] 95 % of control | dose: 200.0 mg/kg/injection, schedule: Q01DX009 (ip), vehicle: Klucel (hydroxypropylcellulose) (HPC) 113 % of control | [9] 90 % of control | dose: 400.0 mg/kg/injection, schedule: Q01DX009 (ip), vehicle: Klucel (hydroxypropylcellulose) (HPC) 110 % of control

CNC1(c2ccc(F)cc2)CCCCC1
inactive: [10] 98 % of control | [7] 98 % of control

Nc1ccc(Nc2ccccc2)c(N)c1
inactive: dose: 50.0 mg/kg/injection, schedule: Q01DX009 (ip), vehicle: saline 98 % of control | dose: 75.0 mg/kg/injection, schedule: Q01DX009 (ip), vehicle: saline 102 % of control | dose: 75.0 mg/kg/injection, schedule: Q04DX003 (ip), vehicle: saline 103 % of control | dose: 150.0 mg/kg/injection, schedule: Q04DX003 (ip), vehicle: saline 96 % of control

Source: PubChem BioAssay AID248 (DTP/NCI, 2004)
